Measured values as given in patent publication US20230118497A1, “PYRAZOLE-CONTAINING POLYCYCLIC DERIVATIVE INHIBITOR, PREPARATION METHOD THEREFOR AND APPLICATION THEREOF” (Shanghai Hansoh Biomedical Co., Ltd., priority 2019, published 2023).

Legend:
[1] = Plasma protein binding rate (mouse); type: in vitro ADME; conditions: 37° C. 6 h
Protocol: (§1) Test Example 6. Assay of Plasma Protein Binding Rate
(§2) The objective of the experiment is to determine the plasma protein binding of the compounds of the Examples in plasma.
(§3) The compound of the Example was formulated into 1 mM solution A with DMSO;
(§4) The solution A was added to the plasma solution to obtain 5 μM solution B;
(§5) 1) 200 μL of solution B was added to the inside of the membrane;
(§6) 2) […] of PBS was added to the outside of the membrane;
(§7) 3) Incubation in a water bath at 37° C. for 6 h;
(§8) 4) The sample was diluted and analyzed by mass spectrometry.

[2] = Plasma protein binding rate (human); type: in vitro ADME; conditions: 37° C. 6 h
Protocol: as §1, §2, §3, §4, §5, §6, §7, §8

[3] = Metabolic stability in liver microsome (rat); type: in vitro ADME; conditions: rat liver microsome 0.5 mg/mL, compound 1 μM; for half-life at 1 μM: liver microsomes
Protocol: (§9) Test Example 5. Assay of Metabolic Stability in Liver Microsome
(§10) The objective of the experiment is to determine the stability of the compounds of the Examples in liver microsome of mouse, rat, dog and human.
(§11) Formulation of the working solution of the compound: The stock solution of the compound was added to phosphate buffer, and the final concentration was 20 μM.
(§12) Liver microsome was diluted with 100 mM phosphate buffer to obtain a final concentration of 0.625 mg/mL.
(§13) NADPH (reduced nicotinamide adenine dinucleotide phosphate) and UDPGA (uridine diphosphate glucuronic acid) were weighed respectively, followed by addition of 100 mM phosphate buffer. The final concentrations were 20 mM.
(§14) 1 mg of Alamethicin was weighed, to which 200 μL of DMSO was added to obtain a 5 mg/mL solution. The solution was diluted with phosphate buffer to obtain a final concentration of 50 μg/mL.
(§15) 2.5 Formulation of the reaction stop solution Stop solution: Cold acetonitrile containing 100 ng/mL labetalol hydrochloride and 400 ng/mL tolbutamide as internal standards.
(§16) 400 μL of the prepared liver microsome, 25 μL of the working solution of the compound and 25 μL of Alamethicin were added to a 96-well plate successively, which was then pre-incubated at 37° C. for 10 min. 50 μL of the prepared NADPH/UDPGA was added to initiate the reaction, and the plate was incubated at 37° C. The total volume of the reaction system was 500 μL. The final contents of the components were as follows: […]

[4] = Plasma protein binding rate (rat); type: in vitro ADME; conditions: 37° C. 6 h
Protocol: as §1, §2, §3, §4, §5, §6, §7, §8

[5] = Metabolic stability in liver microsome (mouse); type: in vitro ADME; conditions: mouse liver microsome 0.5 mg/mL, compound 1 μM; for half-life at 1 μM: liver microsomes, NADPH/UDPGA
Protocol: as §9, §10, §11, §12, §13, §14, §15, §16

[6] = Metabolic stability in liver microsome (dog); type: in vitro ADME; conditions: dog liver microsome 0.5 mg/mL, compound 1 μM; for half-life at 1 μM: liver microsomes, NADPH/UDPGA
Protocol: as §9, §10, §11, §12, §13, §14, §15, §16

BALB/c mice = assay: Taste sensitivity assay in BALB/c mice (quinine solution intake); type: in vivo; conditions: 30 mpk; for Solution consumption of single mouse, Quinine solution: 3 mmol/L quinine hydrochloride, 30 min; for Dysgeusia rate: quinine solution vs solvent groups (20% HP-B-CD)
Protocol: Test Example 9. Taste Sensitivity Assay in BALB/c Mice
In this assay, compounds with less toxic and side effects on animal taste were screened by quinine bitter solution experiment.
BALB/c mice, 6 to 8 weeks old, ♂, purchased from Shanghai SIPPR-BK Laboratory Animal Co., Ltd.
BALB/c mice were randomly grouped according to body weight, and were deprived of water 12 to 16 hours before administration with no fasting.
An appropriate amount of quinine monohydrochloride dihydrate was weighed and formulated into an aqueous solution quinine hydrochloride (concentration: 3 mmol/L) with ultrapure water for later use.
An appropriate amount of the test compound was weighed and formulated into the target concentration with the corresponding solvent according to the experimental design for later use.
Administration and fasting: On the day of the experiment, the animals were weighed and fasted, bedding was changed, and the compounds were administered according to the experimental design.
1. The corresponding clean mouse drinking bottle was rinsed 2 to 3 times with ultrapure water and the formulated 3 mmol/L aqueous solution of quinine hydrochloriderespectively. The bottle was filled and weighed, and the weight was recorded as Wi0.
2. According to the experimental design, a certain period after administration, the filled bottle was gently placed in the corresponding mouse cage, and the timing was started. After 30 min, the bottle was gently taken out and weighed, and the weight was recorded as Wi30.
3. Calculation of solution consumption of animals in each group: ΔWW(g)=[…]; calculation of solution consumption of single mouse: ΔpWW(g)=ΔWW/N, N is the number of animals in each group.
4. Dysgeusia rate=(ΔpWW of the group in which the drinking water was the aqueous solution of quinine hydrochlorideand the test compound was administered at the same time −ΔpWW of the group in which the drinking water was aqueous solution of quinine hydrochlorideand the solvent control was administered at the same time)/(ΔpWW of the group in which the drinking water was ultrapure water and the solvent control was administered at the same time −ΔpWW of the group in which the drinking water was aqueous solution of quinine hydrochloride and the solvent control was administered at the same time)×100%. Data processing was performed with software such as Excel.

SMILES | fraction unbound at 6 h, 5 μM [1] | fraction unbound at 6 h, 5 μM [2] | half-life at 1 μM ([3]; NADPH/UDPGA) [h] | Remaining (%, 60 min) [3] [%] | fraction unbound at 6 h, 5 μM [4] | half-life at 1 μM [5] [h] | Remaining (%, 60 min) [5] [%] | Remaining (%, 60 min) [6] [%] | half-life at 1 μM [6] [h] | Solution consumption of single mouse, Quinine solution (BALB/c mice) [g] | Dysgeusia rate (BALB/c mice) [%] | t1/2 ([3]; NADPH/UDPGA)
CCc1cc2n(CC(=O)Nc3ccc(F)cn3)c(=O)c3ccc(C(F)(F)F)nc3n2n1 [Example 34, 2-(2-Ethyl-5-oxo-8-(trifluoromethyl)pyrazolo[1,5-a]pyrido[3,2-e]pyrimidin-4(5H)-yl)-N-(5-fluoropyridin-2-yl)acetamide] | 0.043 | 0.015 | 28.9 | 104.4 | 0.044 | 3.11 | 81.3 | – | – | – | – | –
O=C(Cn1c(=O)c2ccc(C(F)(F)F)nc2n2nc(Br)cc12)Nc1ccc(F)cn1 [Example 61-A, 2-(2-bromo-5-oxo-8-(trifluoromethyl)pyrazolo[1,5-a]pyrido[3,2-e]pyrimidin-4(5H)-yl)-N-(5-fluoropyridin-2-yl)acetamide] | 0.044 | 0.016 | 15.7 | 102.3 | 0.027 | 6.82 | 92.5 | 96.0 | 15.6 | 0.048 | −3.77 | –
N#Cc1cc2n(CC(=O)Nc3ccc(F)cn3)c(=O)c3ccc(C(F)(F)F)nc3n2n1 [Example 68, 2-(2-Cyano-5-oxo-8-(trifluoromethyl)pyrazolo[1,5-a]pyrido[3,2-e]pyrimidin-4(5H)-yl)-N-(5-fluoropyridin-2-yl)acetamide] | 0.162 | 0.066 | – | 106.4 | 0.11 | 2.75 | 91.6 | 99.0 | 22.5 | 0.056 | −2.26 | ∞
O=C(Cn1c(=O)c2ccc(C(F)(F)F)nc2n2nccc12)Nc1ccc(F)cn1 [Example 78, N-(5-Fluoropyridin-2-yl)-2-(5-oxo-8-(trifluoromethyl)pyrazolo[1,5-a]pyrido[3,2-e]pyrimidin-4(5H)-yl)acetamide] | 0.084 | 0.103 | 32.7 | 98.9 | 0.061 | 568 | 99.3 | 93.4 | 11.2 | 0.016 | −9.81 | –
N#Cc1cnn2c3nc(C(F)(F)F)ccc3c(=O)n(CC(=O)Nc3ccc(F)cn3)c12 [Example 80, 2-(3-Cyano-5-oxo-8-(trifluoromethyl)pyrazolo[1,5-a]pyrido[3,2-e]pyrimidin-4(5H)-yl)-N-(5-fluoropyridin-2-yl)acetamide] | 0.256 | 0.135 | – | – | 0.234 | – | – | – | – | – | – | –
